# Patent US11597708B2, “Inhibitors of heat shock factors and uses thereof” (HSF Pharmaceuticals SA, priority 2016, dated 2023)
# Counter-ions that a name gives are not always drawn. Like-named read-outs stand apart in the source and are kept apart here.
# Biological target: T1, HSF1 (Homo sapiens, UniProt Q00613)
# T1 construct: functionally linked to an hsp70b promoter and therefore controlled by endogenous HSF1; endogenous in cells; host or cells: HeLa cells / HeLa-derived cell line Z74
# T1 sequence (Q00613 1-529): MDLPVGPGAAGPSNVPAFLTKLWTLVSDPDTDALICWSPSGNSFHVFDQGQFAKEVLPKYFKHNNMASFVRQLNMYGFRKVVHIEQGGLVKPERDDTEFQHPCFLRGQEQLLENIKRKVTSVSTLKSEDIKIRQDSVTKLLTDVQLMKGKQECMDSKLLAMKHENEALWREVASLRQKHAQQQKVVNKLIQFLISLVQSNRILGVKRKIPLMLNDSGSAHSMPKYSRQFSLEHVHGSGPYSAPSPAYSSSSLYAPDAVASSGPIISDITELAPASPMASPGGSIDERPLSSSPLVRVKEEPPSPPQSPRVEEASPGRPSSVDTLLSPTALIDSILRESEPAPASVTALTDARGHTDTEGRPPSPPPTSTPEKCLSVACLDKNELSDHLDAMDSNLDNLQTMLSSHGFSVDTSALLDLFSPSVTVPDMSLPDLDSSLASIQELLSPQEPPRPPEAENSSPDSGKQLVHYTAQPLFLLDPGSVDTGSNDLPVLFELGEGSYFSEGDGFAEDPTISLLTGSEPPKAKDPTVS
# Test: Z74 cell-based reporter assay: heat-induced RLuc expression controlled by endogenous HSF1
# Conditions: for IC50: inhibition of HSF1 activity [RLuc]; for inhibition at 12.5 µM: read-out: Inhibition of HSF1 activity at 12.5 μM IHSF [RLuc] (%); for inhibition at 25 µM: read-out: Inhibition of HSF1 activity at 25 μM IHSF [RLuc] (%)
# Excerpt: For screening this sublibrary, a cell-based assay was developed. We opted for a cell-based assay, because a cell-free assay would have had to be a DNA-binding assay. Such an assay would have limited discovery to molecules capable of interfering with the DNA-binding function of HSF1. This was thought to be too narrow a focus, considering that three of the four cavities identified in the HSF1 DNA-binding domain are not near the DNA interaction region. A straightforward cell-based assay, in which a HSF1-responsive gene would be assayed, was considered likely to be over-inclusive. Compounds would be scored as hits that inhibit any factor that is involved in HSF1 activation or prevents HSF1 deactivation. These factors include protein kinases, activators of protein phosphatases, factors affecting HSF1 mRNA stability, HSP90, HDAC6, etc. For developing a more discriminating cell-based assay, advantage was taken of the modular nature of HSF1. […] The cell-based assay developed (see below for the particular format employed) compared transactivation by wild type HSF1 and chimeric HSF1 in cells exposed to an HSF1-activating heat treatment in the presence of a sublibrary compound. A compound was scored as a hit, if it inhibited the activity of wild type HSF1 but not of chimeric HSF1.
# The cell-based assay made use of HeLa-derived cell line Z74 that stably contains a gene for chimeric transcription factor LexA-(human) HSF1 under the control of a CMV early promoter, a firefly luciferase (flue) gene driven by a promoter responsive to the latter chimeric transcription factor and a Renilla luciferase (rluc) gene functionally linked to an hsp70b promoter and therefore controlled by endogenous HSF1 (FIG. 1A). As is shown in FIGS. 1B & C, the reporter genes responded similarly to heat dose, i.e., their activation depended on both duration of heat exposure and temperature of the exposure. […] Depletion of HSF1 (and LexA-HSF1) by siRNA supported the notion that this stress regulation is mediated by HSF1 (and LexA-HSF1). Therefore, the Z74 line was well suited for use in a screening assay aimed at discovering molecules that inhibit heat-induced HSF1 activity through interaction with the transcription factor's DNA-binding domain.
# The compounds of the afore-mentioned biased sublibrary were screened in cell line Z74 at 12.5 and 25 μM concentrations. Typically, Z74 cultures in 96-well plates were exposed to compound or vehicle for 2 h, heat-treated at 43.0° C. for 30 min, and incubated further for 6 h at 37° C. to allow for accumulation of the luciferases. RLuc and FLuc activities were determined, typically using the Dual-Glo® Luciferase Assay System (Promega Corp., Madison, Wis.), and reading luciferase light counts in a Wallac Microbeta Trilux-1450 Luminometer (PerkinElmer, Waltham, Mass.). IHSF 001 was one of two library compounds that inhibited RLuc expression but not FLuc expression in heat-treated Z74 cells (Table 1; FIG. 2A). Therefore, IHSF 001 is an inhibitor of HSF1 function that specifically acts through the HSF1 DNA-binding domain. […] A corroborating experiment utilized a cell line containing an hsp70b promoter-driven fluc gene. […] IHSF 001 is (E)-ethyl 4-oxo-4-(thiazol-2-ylamino)but-2-enoate. The compound can be obtained from commercial sources (e.g., AKE-PB-90340538, Akos).
# [1] = Z74 cells, 12.5 μM IHSF, negative values marked *: compound enhanced rLuc activity
# [2] = Z74 cells, 25 μM IHSF, 2 h exposure, 43° C. 30 min, 6 h at 37° C.
SMILES,IC50 (Z74 cells) [µM],inhibition at 12.5 µM [1] [%],inhibition at 25 µM [2] [%],inhibition at 12.5 µM [%],inhibition at 25 µM [%]
"O=C(/C=C/c1ncno1)Nc1nccs1 [IHSF 089, (E)-3-(1,2,4-Oxadiazol-5-yl)-N-(thiazol-2-yl)acrylamide]",17.9,41,61,,
"CCOC(=O)/C=C/C(=O)Nc1ccnc(N2CCN(C)CC2)c1 [IHSF 078, (E)-3-[2-(4-Methyl-piperazin-1-yl)-pyridin-4-ylcarbamoyl]-acrylic acid ethyl ester formic acid salt]",,,,32,54
"CCN(CC)C(=O)/C=C/C(=O)Nc1nc(C)cs1 [IHSF 060, (E)-But-2-enedioic acid diethyl-amide (4-methyl-thiazol-2-yl)-amide]",,16,19,,
CCOC(=O)/C=C/C(=O)N(CCc1cn(C)cn1)c1nccs1 [IHSF 108],19.6,-6,89,,
"CCNC(=O)/C=C/C(=O)Nc1nccs1 [IHSF 030, (E)-But-2-enedioic acid ethylamide thiazol-2-ylamide]",,5,18,,
"CCOC(=O)/C=C/C(=O)N(CCN1CCOCC1)c1nccs1 [IHSF 101, (E)-3-[(2-Morpholin-4-yl-ethyl)-thiazol-2-yl-carbamoyl]-acrylic acid ethyl ester]",> 25,-30,48,,
"CCOC(=O)/C=C/C(=O)Nc1nc(C2CC2)cs1 [IHSF 053, (E)-3-(4-Cyclopropyl-thiazol-2-ylcarbamoyl)-acrylic acid ethyl ester]",,15,29,,
"CC(C)NC(=O)/C=C/C(=O)Nc1nccs1 [IHSF 031, (E)-But-2-enedioic acid isopropylamide thiazol-2-ylamide]",,15,24,,
"CCOC(=O)/C=C/C(=O)Nc1ccnc(-c2ccc(C)cc2)c1 [IHSF 081, (E)-3-(2-p-Tolyl-pyridin-4-ylcarbamoyl)-acrylic acid ethyl ester formic acid salt]",,,,42,65
"CCOC(=O)/C=C/C(=O)N(C)c1nccs1 [IHSF 070, (E)-3-(Methyl-thiazol-2-yl-carbamoyl)-acrylic acid ethyl ester]",5.7,72,90,,
"CCOC(=O)/C=C/C(=O)N(CCc1ccccn1)c1nccs1 [IHSF 112, (E)-3-[(2-Pyridin-2-yl-ethyl)-thiazol-2-yl-carbamoyl]-acrylic acid ethyl ester]",> 25,13,26,,
"CCOC(=O)/C=C/C(=O)N(CCc1ccncc1)c1nccs1 [IHSF 099, (E)-3-[(2-Pyridin-4-yl-ethyl)-thiazol-2-yl-carbamoyl]-acrylic acid ethyl ester]",18,17,95,,
"O=C(/C=C/c1ncccn1)Nc1nccs1 [IHSF 088, (E)-3-(Pyrimidin-2-yl)-N-(thiazol-2-yl)acrylamide]",,25,31,,
"COC(=O)/C=C/C(=O)Nc1nccs1 [IHSF 027, (E)-3-(Thiazol-2-ylcarbamoyl)-acrylic acid methyl ester]",,18,42,,

# Second part, led by results:
IC50 (Z74 cells) [µM],inhibition at 12.5 µM [1] [%],inhibition at 25 µM [2] [%],SMILES,inhibition at 12.5 µM [%],inhibition at 25 µM [%]
,24,34,"CCOC(=O)/C=C/C(=O)Nc1ccncc1C [IHSF 083, (E)-3-(3-Methyl-pyridin-4-ylcarbamoyl)-acrylic acid ethyl ester]",,
,32,5,"CCOC(=O)/C=C/C(=O)Nc1cc(-c2ccccc2)cs1 [IHSF 043, (E)-3-(4-Phenyl-thiophen-2-ylcarbamoyl)-acrylic acid ethyl ester]",,
,58,91,"CCOC(=O)/C=C/C(=O)Nc1cc(C)nc(C)c1 [IHSF 082, (E)-3-(2,6-Dimethyl-pyridin-4-ylcarbamoyl)-acrylic acid ethyl ester]",,
,33,70,"CCOC(=O)/C=C/C(=O)Nc1cc(C)no1 [IHSF 046, (E)-3-(3-Methyl-isoxazol-5-ylcarbamoyl)-acrylic acid ethyl ester]",,
,42,79,"CCOC(=O)/C=C/C(=O)Nc1ccnc(-c2ccccc2C)c1 [IHSF 079, (E)-3-(2-o-Tolyl-pyridin-4-ylcarbamoyl)-acrylic acid ethyl ester]",,
,55,71,"CCOC(=O)/C=C/C(=O)Nc1ccnc(-c2cccc(C)c2)c1 [IHSF 080, (E)-3-(2-m-Tolyl-pyridin-4-ylcarbamoyl)-acrylic acid ethyl ester]",,
,34,53,"CCOC(=O)/C=C/C(=O)Nc1cnc(-c2ccccc2)s1 [IHSF 045, (E)-3-(2-Phenyl-thiazol-5-ylcarbamoyl)-acrylic acid ethyl ester]",,
,37,67,"CCOC(=O)/C=C/C(=O)Nc1ccnc(C)c1 [IHSF 048, (E)-3-(2-Methyl-pyridin-4-ylcarbamoyl)-acrylic acid ethyl ester]",,
,0,20,"CCOC(=O)/C=C/C(=O)Nc1ncco1 [IHSF 015, (E)-3-(Oxazol-2-ylcarbamoyl)-acrylic acid ethyl ester]",,
19.8,35,61,"CCOC(=O)/C=C/C(=O)Nc1nc(-c2ccncc2)cs1 [IHSF 056, (E)-3-(4-Pyridin-4-yl-thiazol-2-lcarbamoyl)-acrylic acid ethyl ester]",,
11.3,68,86,"CCOC(=O)/C=C/C(=O)Nc1nc(-c2ccccc2)cs1 [IHSF 012, (E)-3-(4-Phenyl-thiazol-2-ylcarbamoyl)-acrylic acid ethyl ester]",,
,47,78,"CCOC(=O)/C=C/C(=O)Nc1ccnc(-c2cccnc2)c1 [IHSF 086, (E)-3-([2,3′]Bipyridmyl-4-ylcarbamoyl)-acrylic acid ethyl ester]",,
10.8,69,96,"CCOC(=O)/C=C/C(=O)Nc1nc(C(=O)OC)c(-c2ccccc2)s1 [IHSF 105, 2-((E)-3 -Ethoxycarbonyl-acryloylamino)-5-phenyl-thiazole-4-carboxylic acid methyl ester]",,
,32,37,"CCOC(=O)/C=C/C(=O)Nc1ccon1 [IHSF 017, (E)-3-(Isoxazol-3-ylcarbamoyl)-acrylic acid ethyl ester]",,
